Test results as given in patent US20260356817A1, “AMINOPYRIMIDINE AND AMINOTRIAZINE DERIVATIVES AS MYC PROTEIN MODULATORS” (Sanford Burnham Prebys Medical Discovery Institute, priority 2022, published 2026).
Where two headings read alike, the source gives them in different places.

Tested on: Myc
Experiment: Myc inhibition assay: Myc expression per cell by anti-Myc immunofluorescence, high-content imaging
Format: cell-based, human (patient-derived medulloblastoma xenograft cells)
Details: medulloblastoma PDX cells, 4 h
Source text: To identify Myc inhibitors, cells isolated from patient-derived orthotopic xenografts (PDXs) from patients with Myc-driven medulloblastoma were used. Specifically, PDX cells were propagated by transplantation directly into the cerebellum of immunodeficient (NSG) mice and were never passaged in vitro in order to maintain properties of the tumor from which they were derived. Tumor tissues were isolated from tumor-bearing animals, dissociated into a single-cell suspension, resuspended in serum-free media, and immediately plated in 384 well plates. After overnight recovery, compounds were added to each well, and cells were incubated for 4 hours before being fixed and stained with anti-Myc antibodies and with DAPI to label nuclei. Cells were then analyzed using high-content imaging to determine the levels of Myc expression per cell and IC50 values of the compounds.

[1] = Table 1, read-out: IC50 (Myc inhibition)
[2] = Table 2, read-out: MYC Inhibition IC50

| SMILES | IC50 [1] | IC50 [2] |
| --- | --- | --- |
| COc1cc(Nc2ccnc(Nc3cccc(F)c3)n2)ccn1 [Compound 122, N^2-(3-fluorophenyl)-N^4-(2-methoxypyridin-4-yl)pyrimidine-2,4-diamine] | 1 to 10 µM | 1 to 10 µM |
| c1cc(Nc2nccc(-c3ccc4[nH]cnc4c3)n2)cc(N2CCOCC2)c1 [Compound 102, 4-(1H-benzo[d]imidazol-5-yl)-N-(3-morpholinophenyl)pyrimidin-2-amine] | < 0.2 µM | < 0.2 µM |
| CC(C)S(=O)(=O)c1cccc(Nc2nccc(-c3ccc4[nH]cnc4c3)n2)c1 [Compound 26, 4-(1H-benzo[d]imidazol-5-yl)-N-(3-(isopropylsulfonyl)phenyl)pyrimidin-2-amine] | < 0.2 µM | < 0.2 µM |
| c1cc(-c2ccc3[nH]cnc3c2)nc(Nc2cnn(C3CCOCC3)c2)n1 [Compound 6, 4-(1H-benzo[d]imidazol-5-yl)-N-(1-(tetrahydro-2H-pyran-4-yl)-1H-pyrazol-4-yl)pyrimidin-2-amine] | 1 to 10 µM | 1 to 10 µM |
| c1cc(-c2ccc3[nH]cnc3c2)nc(NC2CCCCC2)n1 [Compound 96, 4-(1H-benzo[d]imidazol-5-yl)-N-cyclohexylpyrimidin-2-amine] | 1 to 10 µM | 1 to 10 µM |
| c1cncc(-c2cccc(Nc3nccc(-c4ccc5[nH]cnc5c4)n3)c2)c1 [Compound 45, 4-(1H-benzo[d]imidazol-5-yl)-N-(3-(pyridin-3-yl)phenyl)pyrimidin-2-amine] | < 0.2 µM | < 0.2 µM |
| COc1ccc(Oc2ccnc(Nc3cccc(F)c3)n2)cn1 [Compound 124] | 10 to 100 µM | 10 to 100 µM |
| N#Cc1cccc(Nc2nccc(-c3ccc4[nH]cnc4c3)n2)c1 [Compound 94, 3-((4-(1H-benzo[d]imidazol-5-yl)pyrimidin-2-yl)amino)benzonitrile] | 1 to 10 µM | 1 to 10 µM |
| CN1CCN(c2nccc(-c3ccc4[nH]cnc4c3)n2)CC1 [Compound 74, 5-(2-(4-methylpiperazin-1-yl)pyrimidin-4-yl)-1H-benzo[d]imidazole] | 1 to 10 µM | 1 to 10 µM |
| Cn1cnc2ccc(-c3ccnc(Nc4cccc(C(F)(F)F)c4)n3)cc21 [Compound 41, 4-(1-methyl-1H-benzo[d]imidazol-6-yl)-N-(3-(trifluoromethyl)phenyl)pyrimidin-2-amine] | < 0.2 µM | < 0.2 µM |
| Brc1cccc(Nc2nccc(-c3ccc4[nH]cnc4c3)n2)c1 [Compound 31, 4-(1H-benzo[d]imidazol-5-yl)-N-(3-bromophenyl)pyrimidin-2-amine] | < 0.2 µM | < 0.2 µM |
| COc1cc(-c2ccnc(Nc3cccc(OCCO)c3)n2)ccn1 [Compound 129, 2-(3-((4-(2-methoxypyridin-4-yl)pyrimidin-2-yl)amino)phenoxy)ethan-1-ol] | 1 to 10 µM | 1 to 10 µM |
| CN(C)C(=O)c1cccc(Nc2nccc(-c3ccc4[nH]cnc4c3)n2)c1 [Compound 18, 3-((4-(1H-benzo[d]imidazol-5-yl)pyrimidin-2-yl)amino)-N,N-dimethylbenzamide] | 1 to 10 µM | 1 to 10 µM |
| FC(F)(F)c1ccccc1Nc1nccc(-c2ccc3[nH]cnc3c2)n1 [Compound 62, 4-(1H-benzo[d]imidazol-5-yl)-N-(2-(trifluoromethyl)phenyl)pyrimidin-2-amine] | 1 to 10 µM | 1 to 10 µM |
| CCCc1cccc(Nc2nccc(-c3cnc4nc[nH]c4c3)n2)c1 [Compound 133, 4-(1H-imidazo[4,5-b]pyridin-6-yl)-N-(3-propylphenyl)pyrimidin-2-amine] | < 0.2 µM | < 0.2 µM |
| FC(F)(F)c1cccc(Nc2nccc(-c3ccc4nccn4c3)n2)c1 [Compound 127, 4-(Imidazo[1,2-a]pyridin-6-yl)-N-(3-(trifluoromethyl)phenyl)pyrimidin-2-amine] | 0.2 to 1 µM | 0.2 to 1 µM |
| CC(C)n1cc(Nc2nccc(-c3ccc4[nH]cnc4c3)n2)cn1 [Compound 21, 4-(1H-benzo[d]imidazol-5-yl)-N-(1-isopropyl-1H-pyrazol-4-yl)pyrimidin-2-amine] | 0.2 to 1 µM | 0.2 to 1 µM |
| Nc1ncc(-c2ccnc(Nc3cccc(C(F)(F)F)c3)n2)s1 [Compound 119, 5-(2-((3-(Trifluoromethyl)phenyl)amino)pyrimidin-4-yl)thiazol-2-amine] | < 0.2 µM | < 0.2 µM |
| Cc1cc(F)cc(Nc2nccc(-c3ccc4[nH]cnc4c3)n2)c1 [Compound 13, 4-(1H-benzo[d]imidazol-5-yl)-N-(3-fluoro-5-methylphenyl)pyrimidin-2-amine] | < 0.2 µM | < 0.2 µM |
| Oc1cc(-c2ccnc(Nc3cc(F)cc(F)c3)n2)ccn1 [Compound 147, 4-(2-((3,5-difluorophenyl)amino)pyrimidin-4-yl)pyridin-2-ol] | 1 to 10 µM | 1 to 10 µM |
| FC(F)(F)c1cccc(Nc2ncnc(-c3cnc4nc[nH]c4c3)n2)c1 [Compound 105, 4-(1H-Imidazo[4,5-b]pyridin-6-yl)-N-(3-(trifluoromethyl)phenyl)-1,3,5-triazin-2-amine] | < 0.2 µM | < 0.2 µM |

Further lines, results first:

| IC50 [1] | IC50 [2] | SMILES |
| --- | --- | --- |
| 1 to 10 µM | 1 to 10 µM | COc1cccc(-c2ccnc(N(C)c3ccccc3)n2)c1 [Compound 247, 4-(3-methoxyphenyl)-N-methyl-N-phenylpyrimidin-2-amine] |
| 1 to 10 µM | 1 to 10 µM | FC(F)(F)c1cccc(Nc2nccc(-c3ccc4cc[nH]c4c3)n2)c1 [Compound 172, 4-(1H-indol-6-yl)-N-(3-(trifluoromethyl)phenyl)pyrimidin-2-amine] |
| 1 to 10 µM | 1 to 10 µM | Fc1cccc(Nc2nccc(-c3ccc4ocnc4c3)n2)c1 [Compound 271, 4-(benzo[d]oxazol-5-yl)-N-(3-fluorophenyl)pyrimidin-2-amine] |
| 1 to 10 µM | 1 to 10 µM | CN(c1cccc(Nc2nccc(-c3ccc4[nH]cnc4c3)n2)c1)S(=O)(=O)c1ccccc1 [Compound 262, N-(3-((4-(1H-benzo[d]imidazol-5-yl)pyrimidin-2-yl)amino)phenyl)-N-methylbenzenesulfonamide] |
| 1 to 10 µM | 1 to 10 µM | COc1cccc(Nc2nccc(-c3ccnc(O)c3)n2)c1 [Compound 191, 4-(2-((3-methoxyphenyl)amino)pyrimidin-4-yl)pyridin-2-ol] |
| 10 to 100 µM | 10 to 100 µM | COc1cc(-c2ccnc(Nc3cc(C(F)(F)F)ccn3)n2)ccn1 [Compound 166, 4-(2-methoxypyridin-4-yl)-N-(4-(trifluoromethyl)pyridin-2-yl)pyrimidin-2-amine] |
| 10 to 100 µM | 10 to 100 µM | COc1cc(-c2ccnc(Nc3cccc(C(F)(F)F)n3)n2)ccn1 [Compound 168, 4-(2-methoxypyridin-4-yl)-N-(6-(trifluoromethyl)pyridin-2-yl)pyrimidin-2-amine] |
| 10 to 100 µM | 10 to 100 µM | COc1cccc(-c2ccnc(Nc3ccccc3)c2)c1 [Compound 246, 4-(3-Methoxyphenyl)-N-phenylpyridin-2-amine] |
| < 0.2 µM | < 0.2 µM | Fc1cccc(Nc2nccc(-c3cnc4nc[nH]c4c3)n2)c1 [Compound 151, N-(3-fluorophenyl)-4-(1H-imidazo[4,5-b]pyridin-6-yl)pyrimidin-2-amine] |
| 10 to 100 µM | 10 to 100 µM | Oc1cc(-c2ccnc(Oc3ccccc3)n2)ccn1 [Compound 232, 4-(2-phenoxypyrimidin-4-yl)pyridin-2-ol] |
| 0.2 to 1 µM | 0.2 to 1 µM | CCOC(=O)CCc1cccc(Nc2nccc(-c3ccc4nc[nH]c4c3)n2)c1 [Compound 272, ethyl 3-(3-((4-(1H-benzo[d]imidazol-6-yl)pyrimidin-2-yl)amino)phenyl)propanoate] |
| 0.2 to 1 µM | 0.2 to 1 µM | Oc1cc(-c2ccnc(Nc3cncc(C(F)(F)F)c3)n2)ccn1 [Compound 154, 4-(2-((5-(trifluoromethyl)pyridin-3-yl)amino)pyrimidin-4-yl)pyridin-2-ol] |
| < 0.2 µM | < 0.2 µM | Fc1cnc(Nc2cccc(C(F)(F)F)n2)cc1-c1ccc2nc[nH]c2c1 [Compound 279, 4-(1H-benzo[d]imidazol-6-yl)-5-fluoro-N-(6-(trifluoromethyl)pyridin-2-yl)pyridin-2-amine] |
| 10 to 100 µM | 10 to 100 µM | Oc1cc(-c2ccnc(Nc3cccc(C(F)(F)F)n3)n2)ccn1 [Compound 167, 4-(2-((6-(trifluoromethyl)pyridin-2-yl)amino)pyrimidin-4-yl)pyridin-2-ol] |
| 10 to 100 µM | 10 to 100 µM | Oc1cc(-c2ccnc(Nc3ccccn3)n2)ccn1 [Compound 186, 4-(2-(pyridin-2-ylamino)pyrimidin-4-yl)pyridin-2-ol] |
| 1 to 10 µM | 1 to 10 µM | COc1cc(-c2ncnc(Nc3ccccc3)n2)ccn1 [Compound 240, 4-(2-methoxypyridin-4-yl)-N-phenyl-1,3,5-triazin-2-amine] |
| 10 to 100 µM | 10 to 100 µM | Oc1cc(-c2ccnc(Nc3cncnc3)n2)ccn1 [Compound 178, 4-(2-(pyrimidin-5-ylamino)pyrimidin-4-yl)pyridin-2-ol] |
| 10 to 100 µM | 10 to 100 µM | CN(c1ccccc1)c1nccc(-c2cncc(O)c2)n1 [Compound 218, 5-(2-(methyl(phenyl)amino)pyrimidin-4-yl)pyridin-3-ol] |
| 1 to 10 µM | 1 to 10 µM | COc1cccc(Nc2nccc(-c3cccc(OC)c3)n2)c1 [Compound 250, N,4-bis(3-methoxyphenyl)pyrimidin-2-amine] |
| 0.2 to 1 µM | 0.2 to 1 µM | Oc1cc(-c2ccnc(Nc3cccc(F)c3)n2)ccn1 [Compound 242, 4-(2-((3-fluorophenyl)amino)pyrimidin-4-yl)pyridin-2-ol] |
